{"source": "patent US11986478B2", "about": "(priority 2021, dated 2024)", "key": {"[1]": {"tested_on": "SARS-CoV-2 variants of concern B.1.1.7 (Alpha), B.1.351 (Beta) and B.1.617.2 (Delta)", "assay": "microbe, parasite or virus in culture", "format": "cell-based", "settings": "Severe acute respiratory syndrome coronavirus 2, VeroE6/TMPRSS2, read-out: EC50 against SARS-CoV-2 variants of concern"}, "SARS2-PLpro K157A mutant": {"biological_target": "SARS2-PLpro K157A mutant (Severe acute respiratory syndrome coronavirus 2, UniProt P0DTD1, K1720A)", "format": "biochemical, SARS-CoV-2"}}, "data": [{"smiles": "O=C(Nc1ccccc1Cl)c1sc(=S)n2c1[nH]c(=O)c1ccccc12", "note": "[Compound F0213]", "values": [{"measurement": "EC50", "setting": "[1]", "result": "2.2 to 4.8", "unit": "µM"}, {"measurement": "effect of K157A substitution on inhibitory potency", "setting": "SARS2-PLpro K157A mutant", "result": "significantly diminished the inhibitory potency"}]}]}
